Data from ChEMBL document CHEMBL5625274, “Improved synthesis, molecular modeling and anti-inflammatory activity of new fluorinated dihydrofurano-naphthoquinone compounds” (Bioorg Med Chem Lett, 2024).
Values joined by “and” are separate entries in the source; they are usually repeats but may differ in a detail not shown here. Equal entries are not always repeated.

Tests used:
Prostaglandin E synthase = target: T1, Prostaglandin E synthase (Homo sapiens, UniProt O14684)
T1 sequence (O14684 whole entry): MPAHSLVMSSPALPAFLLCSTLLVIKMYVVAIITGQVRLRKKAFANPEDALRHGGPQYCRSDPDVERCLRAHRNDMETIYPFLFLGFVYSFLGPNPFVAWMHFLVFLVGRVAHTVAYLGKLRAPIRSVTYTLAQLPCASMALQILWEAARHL

RAW264.7 [1] = assay: cells; conditions: Mus musculus
in vitro [2] = conditions: mouse, RAW264.7 cells
in vitro [3] = conditions: mouse, RAW264.7 cells; at 32 µg/mL
in vitro [4] = conditions: mouse, RAW264.7 cells; at 8 µg/mL
in vitro [5] = conditions: mouse, RAW264.7 cells; at 2 µg/mL
in vitro [6] = conditions: mouse, RAW264.7 cells; at 0.5 µg/mL
RAW264.7 [7] = assay: cells; conditions: Mus musculus; remark: listed apart in the source
RAW264.7 [8] = assay: cells; conditions: Mus musculus; remark: listed apart in the source

Ki (Prostaglandin E synthase)	IC50 (RAW264.7 [1])	IC50 (RAW264.7 [7])	IC50 (RAW264.7 [8])	SMILES	viability at 128 ug/mL (in vitro [2])	viability at 32 ug/mL (in vitro [3])	viability at 8 ug/mL (in vitro [4])	viability at 2 ug/mL (in vitro [5])	viability at 0.5 ug/mL (in vitro [6])
184000 nM	3.92 µM and 1.75 µg/mL			COc1cc(F)c([C@@H]2C3=C(O[C@H]2C(=O)c2ccccc2)C(=O)c2ccccc2C3=O)cc1F	15%	16%	59%	60%	91%
	> 268 µM and > 128 µg/mL			COc1ccc([C@@H]2C3=C(O[C@H]2C(=O)c2ccccc2)C(=O)c2ccccc2C3=O)c(C(F)(F)F)c1	40%	100%	100%	100%	100%
	222 µM and 109 µg/mL			O=C1C2=C(C(=O)c3ccccc31)[C@@H](c1ccc(Oc3ccc(F)cc3)cc1)[C@H](C(=O)c1ccccc1)O2	29%	99%	99%	99%	100%
	3.52 µM and 1.57 µg/mL			COc1c(F)cc([C@@H]2C3=C(O[C@H]2C(=O)c2ccccc2)C(=O)c2ccccc2C3=O)cc1F	22%	51%	64%	67%	85%
	15.8 µM and 6.28 µg/mL			O=C1C2=C(C(=O)c3ccccc31)[C@@H](c1ccc(F)cc1)[C@H](C(=O)c1ccccc1)O2	2%	33%	69%	100%	100%
241000 nM	1.54 µM and 0.66 µg/mL			COc1ccc([C@@H]2C3=C(O[C@H]2C(=O)c2ccccc2)C(=O)c2ccccc2C3=O)cc1F	38%	41%	51%	60%	71%
	> 276 µM and > 128 µg/mL			O=C1C2=C(C(=O)c3ccccc31)[C@@H](c1ccc(OC(F)(F)F)cc1)[C@H](C(=O)c1ccccc1)O2	34%	70%	100%	100%	100%

The next lines start with the molecule.

SMILES	Ki (Prostaglandin E synthase)	IC50 (RAW264.7 [1])	IC50 (RAW264.7 [7])	IC50 (RAW264.7 [8])	viability at 128 ug/mL (in vitro [2])	viability at 32 ug/mL (in vitro [3])	viability at 8 ug/mL (in vitro [4])	viability at 2 ug/mL (in vitro [5])	viability at 0.5 ug/mL (in vitro [6])
COc1ccc([C@@H]2C3=C(O[C@H]2C(=O)c2ccccc2)C(=O)c2ccccc2C3=O)c(F)c1					23%	35%	38%	40%	100%
O=C1C2=C(C(=O)c3ccccc31)[C@@H](c1ccc(O)cc1F)[C@H](C(=O)c1ccccc1)O2					3%	15%	19%	22%	29%
CCCCc1cc2c(o1)C(=O)c1ccccc1C2=O			> 2900 nM	> 2900 nM					
O=C1C2=C(C(=O)c3ccccc31)[C@@H](c1ccccc1F)[C@H](C(=O)c1ccccc1)O2					0%	15%	20%	32%	81%
O=C1C2=C(C(=O)c3ccccc31)[C@@H](c1ccc(O)c(F)c1)[C@H](C(=O)c1ccccc1)O2					4%	10%	41%	45%	99%
O=C1C2=C(C(=O)c3ccccc31)[C@@H](c1ccc(OC(F)F)c(O)c1)[C@H](C(=O)c1ccccc1)O2					2%	5%	15%	46%	71%
Cc1cc2c(o1)C(=O)c1ccccc1C2=O			< 2900 nM	< 2900 nM					
CCc1cc2c(o1)C(=O)c1ccccc1C2=O			> 2900 nM	> 2900 nM					
